Measured values: patent publication US20200239832A1, “TOLERANCE OF MICROBIAL CELLS AGAINST ORTHO-AMINOBENZOATE IN PRESENCE OF ALKALI IONS AT NEUTRAL PH” (priority 2017, published 2020)

Assays:
Type in all cases: cell-based, Corynebacterium glutamicum
[1] = system: C. glutamicum ATCC 13032; experiment: Comparison of metabolic activity after NH4-oAB and Na-oAB addition, batch cultivation in 1 L bioreactors (Example 3); details: for biomass accumulation after oAB addition: 40 mL of 500 g/L oAB stock solution at pH 7 added after 6.4 h and 23.6 h, FIG. 3
Protocol: FIG. 3: Influence of Na-oAB and NH4-oAB addition on oAB resistance during batch cultivation in 1 L scale with C. glutamicum ATCC 13032. Filled symbols: addition of 40 mL of 500 g/L oAB stock solution (oAB dissolved with NaOH at pH 7) after 6.4 h and 23.6 h. Open symbols: addition of 40 mL of 500 g/L oAB stock solution (oAB dissolved with NH4OH at pH 7) after 6.4 h and 23.6 h. Initial cultivation volume VL=1 L, temperature 30° C., pH=7 controlled with NH4OH (10 w % NH3), gassing rate with air=0.2 L/min, pO2 controlled at 30% air saturation by adjusting the stirrer speed between 200 and 1200 rpm.
The influence of NH4 was tested with C. glutamicum ATCC 13032 (without further genetic modifications, not modified by evolutionary engineering) using two 1 L bioreactors filled with sterile cultivation medium including the following initial concentrations: […], 5 g/L (NH4)2SO4, 1 g/L KH2PO4, 1 g/L K2HPO4, 0.25 g/L MgSO4.7 H2O, 0.01 g/L CaCl2.2 H2O, 2 mg/L biotin (vitamin B7), 0.03 g/L protocatechuic acid (3,4-Dihydroxybenzoic acid), 0.01 g/L MnSO4.H2O, 0.01 g/L FeSO4.7H2O, 1 mg/L ZnSO4.7H2O, 0.2 mg/L CuSO4.5H2O and 0.02 mg/L NiCl2.6H2O.
(§1) The preculture medium for the cultivation in shake flasks contained additionally 42 g/L MOPS buffer, 3.7 g/L brain heart infusion broth, 5 g/L urea (CH4N2O) and 20 g/L (NH4)2SO4 (instead of 5 g/L). The preculture was cultivated in 300 mL shake flasks with a liquid volume of 25 mL at a temperatur of 28° C. and a shaking frequency of 180 rpm until OD600>20 was reached.
During the fermentation the temperature was controlled at 30° C. and pH was kept constant at pH=7 by adding aqueous NH4OH solution (10 w % NH3). The gassing rate was adjusted to 0.2 L/min air and the dissolved oxygen tension was controlled at 30% air saturation by adjusting the stirrer speed between 200 rpm and 1200 rpm.
40 mL of a 500 g/L oAB stock solution (oAB dissolved with NaOH at pH 7) was added to reactor 1 after 6.4 h and 23.6 h (filled symbols) and 40 mL of a 500 g/L oAB stock solution (oAB dissolved with NH4OH at pH 7) was added after 6.4 h and 23.6 h to reactor 2 (open symbols)
From this it follows that the toxicity of oAB on C. glutamicum ATCC 13032 in presence of high Na+ concentrations is reduced compared to the toxicity in presence of high NH4^+ concentrations.

[2] = system: C. glutamicum strain derived from ATCC 13032 by evolutionary engineering; experiment: Comparison of metabolic activity after NH4-oAB and Na-oAB addition, batch cultivation in 1 L bioreactors (Example 2); details: 40 mL of 500 g/L oAB stock solution at pH 7 added after 7 h and 24 h; FIG. 2
Protocol: FIG. 2: Influence of Na-oAB and NH4-oAB addition on oAB resistance during batch cultivation in 1 L scale with C. glutamicum ATCC 13032. Filled symbols: addition of 40 mL of […] stock solution (oAB dissolved with NaOH at pH 7) after 7 h and 24 h. Open symbols: addition of 40 mL of 500 g/L oAB stock solution (oAB dissolved with NH4OH at pH 7) after 7 h and 24 h. Both bioreactors: addition of 36 g/L glucose (added as stock solution) after 7.5 h and 24.5 h to prevent a glucose limitation. Initial cultivation volume VL=1 L, temperature 30° C., pH=7 controlled with NH4OH (10 w % NH3), gassing rate with air=0.2 L/min, pO2 controlled at 30% air saturation by adjusting the stirrer speed between 200 and 1200 rpm.
A C. glutamicum strain derived from ATCC 13032 was used to compare the metabolic activity after NH4-oAB and Na-oAB addition during the cultivation. This strain was derived from Corynebacterium glutamicum ATCC 13032 by evolutionary engineering in order to increase its resistance against oAB.
It was not further genetically modified. Thus it was not capable of oAB-production. For this purpose, two 1 L bioreactors were filled with sterile cultivation medium including the following initial concentrations: 20 g/L glucose, 5 g/L (NH4)2SO4, 1 g/L KH2PO4, 1 g/L K2HPO4, 0.25 g/L MgSO4.7 H2O, 0.01 g/L CaCl2.2 H2O, 2 mg/L biotin (vitamin B7), 0.03 g/L protocatechuic acid (3,4-Dihydroxybenzoic acid), 0.01 g/L MnSO4.H2O, 0.01 g/L FeSO4.7H2O, 1 mg/L ZnSO4.7H2O, 0.2 mg/L CuSO4.5H2O and 0.02 mg/L NiCl2.6H2O.
as §1, with “[…]” for “20 g/L”

[3] = system: modified C. glutamicum production strain; experiment: Evaluation of the maximum tolerable oAB concentration, batch cultivation in 1 L bioreactor
Protocol: FIG. 1: Evaluation of the maximum tolerable oAB concentration during batch cultivation in a 1 L lab-scale bioreactor with a modified C. glutamicum production strain. Addition of 20 mL of a 500 g/L oAB stock solution (oAB dissolved with NaOH at pH 7) after 23 h and 39 h, 48 h (two times), 64 h (two times) and 71 h (two times) and addition of glucose solution after 40 h, 48 h, 63 h, 65 and 71.5 h to prevent a glucose limitation. Initial cultivation volume VL=1 L, temperature 30° C., pH=7 controlled by adding NH4OH (10 w % NH3) during cultivation, gassing rate with air=0.2 L/min, pO2 controlled at 30% air saturation by adjusting the stirrer speed between 200 and 1200 rpm.
The maximum tolerable oAB concentration in the presence of sodium ions in the medium was tested with a modified C. glutamicum production strain. This strain was derived from Corynebacterium glutamicum ATCC 13032 by evolutionary engineering in order to increase its resistance against oAB.
This strain was then genetically modified to make it capable of oAB-production. […]

[4] = according to FIG. 3, NH4+ as counter ion

Row | SMILES | biomass accumulation after oAB addition [1] | o-aminobenzoate concentration above which the metabolic activity of bacterial cells (OTR) is limited [1, 4] | o-aminobenzoate concentration at which cell growth (dry weight) stops [1, 4] | OTR signal after oAB addition [2] | biomass concentration after oAB addition [2] | oAB concentration at which growth (increase in biomass concentration) was still observed ([3]; oAB added stepwise as sodium salt (dissolved with NaOH at pH 7), pH 7 controlled with NH4OH, 30° C.) | oAB concentration resulting in a decrease of the metabolic activity (declining OTR signal) and no further increase in biomass ([3]; oAB increased from 80 g/L to 100 g/L after 71 h, added as sodium salt, pH 7, 30° C.)
1 | N.Nc1ccccc1C(=O)O [NH4-oAB] | growth inhibition after 24 h | more than 25 g/L | > 50 g/L | constant OTR signal | reduced biomass accumulation |  | 
2 | Nc1ccccc1C(=O)[O-].[Na+] [Na-oAB] | biomass accumulation continued |  |  | continued to increase | continued to increase |  | 
3 | Nc1ccccc1C(=O)O [oAB, 2-aminobenzoic acid] |  |  |  |  |  | 80 g/L | 100 g/L
